# Measurements reported in patent US20100330116A1, “LIVE […] USE AS VACCINE” (The University of Queensland, priority 2004, published 2010).
# Tests used:
# FD436 [1] = assay: MBC determination of nalidixic acid and rifampicin (growth on SBA plates); details: TSB, then SBA 37° C., 48 h
# FD436 [2] = assay: MIC determination of nalidixic acid and rifampicin (broth dilution, Bioscreen turbidity); details: TSB, 37° C., 24 h
compound,measurement,setting,value
CCn1cc(C(=O)O)c(=O)c2ccc(C)nc21 [Nalidixic acid],MBC for FD436,FD436 [1],0.00125 % (w/v)
same,MIC for FD436,FD436 [2],0.00125 % (w/v)
CO[C@H]1/C=C/O[C@@]2(C)Oc3c(C)c(O)c4c(O)c(c(/C=N/N5CCN(C)CC5)c(O)c4c3C2=O)NC(=O)/C(C)=C\C=C\[C@H](C)[C@H](O)[C@@H](C)[C@@H](O)[C@@H](C)[C@H](OC(C)=O)[C@@H]1C [Rifampicin],MBC for FD436,FD436 [1],0.0025 % (w/v)
same,MIC for FD436,FD436 [2],0.0025 % (w/v)
